Test results from US11414424B2, “Cardiac sarcomere inhibitors” (Cytokinetics, Inc., priority 2018, dated 2022).

What follows are compounds tested on bovine cardiac myofibrils (assay: Myofibril assay: PK/LDH-coupled steady-state ATPase activity of skinned bovine cardiac myofibrils). Settings: Ca2+ activating to 75% of maximal rate.
Format: biochemical
Method in brief: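 Steady-state ATPase of detergent-skinned bovine left-ventricular myofibrils (1 mg/mL), PK/LDH-coupled NADH read at 340 nm, in PIPES/MgCl2 buffer pH 6.8 with 50 μM ATP, 0.6 mM EGTA and CaCl2 set for 50% or 75% activation. Inhibition of activity measured.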

| SMILES | CDMF75 IC15 |
| --- | --- |
| CC(C)N1CC(=O)N(Cc2ccc(F)cc2)C(c2ccc(Cl)cc2)C1=O (stereo not shown) [Compound 303, 3-(4-chlorophenyl)-4-(4-fluorobenzyl)-1-isopropylpiperazine-2,5-dione] | 3.7 µM |
| CNC(=O)N1CC2(C1)C(=O)N(c1ncc(Cl)cc1F)CC(=O)N2Cc1ccc(C(F)(F)F)cc1 [Compound 552, 8-(5-chloro-3-fluoropyridin-2-yl)-N-methyl-6,9-dioxo-5-(4-(trifluoromethyl)-benzyl)-2,5,8-triazaspiro-[3.5]nonane-2-carboxamide] | 0.5 µM |
| COc1cc(N2CCC3(C2)C(=O)N(C(C)C)CC(=O)N3Cc2ccc(Cl)cc2)ccn1 (stereo not shown) [Compound 87, 6-(4-chlorobenzyl)-9-isopropyl-2-(2-methoxypyridin-4-yl)-2,6,9-triazaspiro[4.5]-decane-7,10-dione] | 1.9 µM |
| CC(C)N1CC(=O)N(Cc2ccc(C(F)(F)F)cc2)C2(CN(C(N)=O)C2)C1=O [Compound 68, 8-isopropyl-6,9-dioxo-5-(4-(trifluoromethyl)benzyl)-2,5,8-triazaspiro[3.5]-nonane-2-carboxamide] | 9.2 µM |
| CC(C)N1CC(=O)N(Cc2ccc(Cl)cc2)C2(CN(c3cccnc3)C2)C1=O [Compound 7, 5-(4-chlorobenzyl)-8-isopropyl-2-(pyridin-3-yl)-2,5,8-triazaspiro[3.5]-nonane-6,9-dione] | 1.9 µM |
| CC1(C(F)F)C(=O)N(c2ncc(Cl)cc2F)CC(=O)N1Cc1ccc(Cl)cc1 (stereo not shown) [Compound 636, 1-(5-chloro-3-fluoropyridin-2-yl)-4-(4-chlorobenzyl)-3-(difluoromethyl)-3-methylpiperazine-2,5-dione] | 1.3 µM |
| CC(C)N1CC(=O)N(Cc2ccccc2C#N)C(c2ccc(Cl)cc2)C1=O (stereo not shown) [Compound 301, 2-((2-(4-chlorophenyl)-4-isopropyl-3,6-dioxo-piperazin-1-yl)methyl)-benzonitrile] | 18.6 µM |
| CNC(=O)N1CCC2(C1)C(=O)N(Cc1ccc(OC)cc1)CC(=O)N2Cc1ccc(Cl)cc1 (stereo not shown) [Compound 334, 6-(4-chlorobenzyl)-9-(4-methoxybenzyl)-N-methyl-7,10-dioxo-2,6,9-triazaspiro[4.5]decane-2-carboxamide] | 8.0 µM |
| CNC(=O)N1CC2(C1)C(=O)N(c1ccc(C#N)c(C)c1)CC(=O)N2Cc1ccc(C(F)(F)F)cc1 [Compound 167, 8-(4-cyano-3-methyl-phenyl)-N-methyl-6,9-dioxo-5-(4-(trifluoromethyl)-benzyl)-2,5,8-triazaspiro-[3.5]nonane-2-carboxamide] | 1.3 µM |
| N#Cc1ccc(N2CC(=O)N(Cc3ccc(C(F)(F)F)cc3)C3(CN(C(=O)C4CCC4)C3)C2=O)c(F)c1 [Compound 180, 4-(2-(cyclobutanecarbonyl)-6,9-dioxo-5-(4-(trifluoromethyl)benzyl)-2,5,8-triazaspiro[3.5]nonan-8-yl)-3-fluorobenzonitrile] | 1.6 µM |
| CC(=O)N1CC[C@]2(C1)C(=O)N(c1ccc(OC(F)F)cc1)CC(=O)N2Cc1ccc(Cl)cc1 [Compound 224, (S)-2-acetyl-6-(4-chloro-benzyl)-9-(4-(difluoro-methoxy)phenyl)-2,6,9-triazaspiro[4.5]decane-7,10-dione] | 12.1 µM |
| Cc1cccc(CN2C(=O)CN(C(C)C)C(=O)C2c2ccc(Cl)cc2)c1 (stereo not shown) [Compound 304, 3-(4-chlorophenyl)-1-isopropyl-4-(3-methyl-benzyl)piperazine-2,5-dione] | 16.4 µM |
| CNC(=O)N1CC2(C1)C(=O)N(c1ccc(C#N)cc1F)CC(=O)N2Cc1ccc(C(F)(F)F)cc1 [Compound 169, 8-(4-cyano-2-fluorophenyl)-N-methyl-6,9-dioxo-5-(4-(trifluoromethyl)benzyl)-2,5,8-triazaspiro[3.5]nonane-2-carboxamide] | 0.2 µM |
| CC(C)N1CC(=O)N(Cc2ccc(Cl)cc2)C(c2ccc(C(F)(F)F)cc2)C1=O (stereo not shown) [Compound 314, 4-(4-chlorobenzyl)-1-isopropyl-3-(4-(trifluoro-methyl)phenyl)piperazine-2,5-dione] | 8.4 µM |
| CC(C)N1CC(=O)N(Cc2ccc(C(F)(F)F)cc2)C2(CCN(C(N)=O)C2)C1=O (stereo not shown) [Compound 107, 9-isopropyl-7,10-dioxo-6-(4-(trifluoromethyl)benzyl)-2,6,9-triazaspiro[4.5]decane-2-carboxamide] | 12.7 µM |
| O=C1C(C2CC(O)C2)N(Cc2ccc(C(F)(F)F)cc2)C(=O)CN1c1ncc(Cl)cc1F (single isomer, unassigned) [Compound 740B, 1-(5-chloro-3-fluoropyridin-2-yl)-3-(3-hydroxycyclobutyl)-4-(4-(trifluoromethyl)benzyl)piperazine-2,5-dione] | 0.97 µM |
| CC(C)N1CC(=O)N(Cc2ccc(C(F)(F)F)cc2)C2(CCN(c3ccccc3)C2=O)C1=O (stereo not shown) [Compound 327, 9-isopropyl-2-phenyl-6-(4-(trifluoromethyl)benzyl)-2,6,9-triazaspiro[4.5]decane-1,7,10-trione] | 9.8 µM |

| SMILES | CDMF75 IC15 |
| --- | --- |
| CNC(=O)N1CC2(C1)C(=O)N(c1ccc(Cl)cc1F)CC(=O)N2Cc1ccc(C(F)(F)F)cc1 [Compound 168, 8-(4-chloro-2-fluoro-phenyl)-N-methyl-6,9-dioxo-5-(4-(trifluoro-methyl)benzyl)-2,5,8-triazaspiro[3.5]nonane-2-carboxamide] | 0.3 µM |
| CNC(=O)N1CCC2(C1)C(=O)N(C(C)C)CC(=O)N2Cc1ccc(Cl)cc1 (stereo not shown) [Compound 121, 6-(4-chlorobenzyl)-9-isopropyl-N-methyl-7,10-dioxo-2,6,9-triazaspiro[4.5]-decane-2-carboxamide] | 9.9 µM |
| CC(C)N1CC(=O)N(Cc2ccc(Cl)cc2)C2(CCN(C(=O)Nc3ccccc3)C2)C1=O (stereo not shown) [Compound 123, 6-(4-chlorobenzyl)-9-isopropyl-7,10-dioxo-N-phenyl-2,6,9-triazaspiro-[4.5]decane-2-carboxamide] | 11.2 µM |
| CC(C)(C)OC(=O)[C@H]1C[C@]2(C1)C(=O)N(c1ccc(C#N)cc1F)CC(=O)N2Cc1ccc(C(F)(F)F)cc1 [Compound 429B] | 0.2 µM |
| CC(=O)N1CC2(C1)C(=O)N(c1ncc(C(F)(F)F)cc1F)CC(=O)N2[C@@H](C)c1ccc(Cl)cc1 [Compound 565, (S)-2-acetyl-5-(1-(4-chlorophenyl)ethyl)-8-(3-fluoro-5-(trifluoromethyl)-pyridin-2-yl)-2,5,8-triazaspiro[3.5]nonane-6,9-dione] | 17.8 µM |
| CC(C)N1CC(=O)N(Cc2ccc(Cl)cc2)C(c2ccc(Cl)cc2)C1=O (racemic) [Compound 288, 3-(4-chlorophenyl)-4-[(4-chlorophenyl)methyl]-1-(propan-2-yl)piperazine-2,5-dione] | 1.8 µM |
| CC(C)N1CC(=O)N(Cc2ccc(Cl)cc2)C2(CN(c3ccc(Cl)cc3)C2)C1=O [Compound 4, 5-(4-chlorobenzyl)-2-(4-chlorophenyl)-8-isopropyl-2,5,8-triazaspiro[3.5]-nonane-6,9-dione] | 2.5 µM |
| Cc1ccc(CN2C(=O)CN(c3ncc(Cl)cc3F)C(=O)C23COC3)cc1 [Compound 757, 8-(5-chloro-3-fluoropyrldin-2-yl)-5-(4-methylbenzyl)-2-oxa-5,8-diazaspiro[3.5]-nonane-6,9-dione] | 7.2 µM |
| CC(=O)N1CC2(C1)C(=O)N(c1ccc(Cl)cc1F)CC(=O)N2[C@@H](C)c1ccc(C(F)(F)F)cc1 [Compound 340, (S)-2-acetyl-8-(4-chloro-2-fluorophenyl)-5-(1-(4-(trifluoromethyl)phenyl)-ethyl)-2,5,8-triazaspiro-[3.5]nonane-6,9-dione] | 0.7 µM |
| CC(C)N1CC(=O)N(Cc2ccc(Cl)cc2)C2(CN(c3ccnnc3)C2)C1=O [Compound 24, 5-(4-chlorobenzyl)-8-isopropyl-2-(pyridazin-4-yl)-2,5,8-triazaspiro[3.5]-nonane-6,9-dione] | 5.7 µM |
| N#Cc1ccc(N2CC(=O)N(Cc3ccc(Cl)cc3)[C@]3(C[C@@H](C(N)=O)C3)C2=O)c(F)c1 [Compound 266, (2s,4s)-5-(4-chlorobenzyl)-8-(4-cyano-2-fluorophenyl)-6,9-dioxo-5,8-diazaspiro-[3.5]nonane-2-carboxamide] | 0.7 µM |
| O=C1C(C2COC2)N(Cc2ccc(C(F)(F)F)c(F)c2)C(=O)CN1c1ncc(Cl)cc1F (stereo not shown) [Compound 649, 1-(5-chloro-3-fluoropyridin-2-yl)-4-(3-fluoro-4-(trifluoromethyl)benzyl)-3-(oxetan-3-yl)piperazine-2,5-dione] | 2.9 µM |
| COC(=O)[C@H]1C[C@]2(C1)C(=O)N(c1ccc(C#N)cc1F)CC(=O)N2Cc1ccc(Cl)cc1 (single isomer, unassigned) [Compound 488B] | 0.2 µM |
| CN(C)C(=O)N1CC2(C1)C(=O)N(c1ccc(C#N)c(F)c1)CC(=O)N2Cc1ccc(C(F)(F)F)cc1 [Compound 201, 8-(4-cyano-3-fluorophenyl)-N,N-dimethyl-6,9-dioxo-5-(4-(trifluoromethyl)benzyl)-2,5,8-triazaspiro[3.5]nonane-2-carboxamide] | 5.1 µM |
| O=C1C(CC2COC2)N(Cc2ccc(C(F)(F)F)cc2)C(=O)CN1c1ncc(Cl)cc1F (stereo not shown) [Compound 639, 1-(5-chloro-3-fluoropyridin-2-yl)-3-(oxetan-3-ylmethyl)-4-(4-(trifluoromethyl)-benzyl)piperazine-2,5-dione] | 1.4 µM |
| CC(C)N1CC(=O)N(Cc2ccc(Cl)cc2)C2(CCN(c3ccccn3)C2)C1=O (single isomer, unassigned) [Compound 373B, 6-[(4-chlorophenyl)methyl]-9-(propan-2-yl)-2-(pyridin-2-yl)-2,6,9-triazaspiro[4.5]decane-7,10-dione] | >39 µM |
| CC(C)N1CC(=O)N([C@H](C)c2ccc(C(F)(F)F)cc2)C2(CN(c3ccccc3)C2)C1=O [Compound 141, (R)-8-isopropyl-2-phenyl-5-(1-(4-(trifluoromethyl)-phenyl)ethyl)-2,5,8-triazaspiro[3.5]nonane-6,9-dione] | 10.7 µM |
